Reference: paper PMC6358866 (International Journal of Molecular Sciences, 2019)

Columns and labels:
[1] = tested on: Enterococcus faecalis ATCC 29212 biofilm; experiment: Activity against biofilms formed on polystyrene 96-well plates, 24 h exposure, resazurin; type: cell-based; conditions: polystyrene plate, 24 h exposure in MHB II
Protocol: (§1) Bacterial strains were obtained from the Polish Collection of Microorganisms (Polish Academy of Science, Wroclaw, Poland). […] The bacteria were cultured in a Mueller Hinton Broth II (MHB, Biocorp, Warsaw, Poland) overnight, under aerobic conditions at 37 °C. After incubation, the liquid cultures were centrifuged (2500 rpm for 10 min) and washed with phosphoric buffer (PBS, AppliChem, Darmstadt, Germany) three times and resuspended in fresh MHB II for inoculums appropriate for the performed assays.
(§2) Bacterial suspensions were added to 96-well plates (Kartell, Noviglio, Italy) at initial inoculums of ca. 5 × 10^8 CFU/mL and incubated under aerobic conditions with shaking (120 rpm) at 37 °C for 24 h. […] After exposure, the wells were washed three times with PBS and a solution of resazurin (Sigma Aldrich, St. Louis, MO, USA) in MHB II (0.01%) was added. This cell viability reagent is metabolized by bacterial dehydrogenases upon contact with living cells. As a result, the blue dye is reduced to a pink resorufin. After 1.5 h of incubation, the absorbance was measured at 570 and 600 nm using a microplate reader (Thermo Fisher Scientific, Waltham, MA, USA). […] The metabolic activity of bacteria in the samples was measured according to the following formula:
(§3) Metabolic activity (%) = (ΔAbs of sample − ΔAbs of negative control)/(ΔAbs of positive control − ΔAbs of negative control);
(§4) ΔAbs = absorbance at 570 nm − absorbance at 600 nm;
(§5) The presented results are the means of nine results obtained on three different days.

[2] = tested on: Escherichia coli ATCC 25922 biofilm; experiment: as above; type: cell-based; conditions: polystyrene plate, 24 h exposure in MHB II
Protocol: as §1, §2, §3, §4, §5

[3] = tested on: Staphylococcus epidermidis ATCC 14990 biofilm; experiment: as above; type: cell-based; conditions: polystyrene plate, 24 h exposure in MHB II, resazurin
Protocol: as §1, §2, §3, §4, §5

[4] = tested on: Pseudomonas aeruginosa ATCC 9027 biofilm; experiment: as above; type: cell-based; conditions: lowest concentration reducing metabolic activity by at least 50 ± 5%; polystyrene plate, 24 h exposure in MHB II, resazurin
Protocol: as §1, §2, §3, §4, §5

[5] = tested on: Enterococcus faecalis ATCC 29212 biofilm; experiment: Effect of the lipopeptide on lens liquids against biofilms on 96-well polystyrene plates; type: cell-based; conditions: EF biofilm on polystyrene, lipopeptide alone in PBS, 'the same concentration' (32 or 16 mg/L), 24 h
Protocol: (§6) Bacterial strains were obtained from the Polish Collection of Microorganisms (Polish Academy of Science, Wroclaw, Poland). Three Gram-positive and two Gram-negative strains linked with CL-related infections were chosen for the study (Staphylococus aureus ATCC 6538, Staphylococcus epidermidis ATCC 14990, Pseudomonas aeruginosa ATCC 9027, Escherichia coli ATCC 25922, and Enterococcus faecalis ATCC 29212). The bacteria were cultured in a Mueller Hinton Broth II (MHB, Biocorp, Warsaw, Poland) overnight, under aerobic conditions at 37 °C. […]
(§7) Bacterial suspensions were added to 96-well plates (Kartell, Noviglio, Italy) at initial inoculums of ca. 5 × 10^8 CFU/mL and incubated under aerobic conditions with shaking (120 rpm) at 37 °C for 24 h. […] After 1.5 h of incubation, the absorbance was measured at 570 and 600 nm using a microplate reader (Thermo Fisher Scientific, Waltham, MA, USA). […] The metabolic activity of bacteria in the samples was measured according to the following formula:
(§8) Positive controls (100%) were wells with pre-grown biofilms where the MHB II was replaced with pure PBS, while negative controls were wells with pure MHB II (also replaced with PBS). After 24 h of incubation (aerobic conditions, 120 rpm shaking, 37 °C), the solutions were replaced with resazurin in MHB II and the results were read and presented as described in Section 4.3.

[6] = tested on: Staphylococcus epidermidis ATCC 14990 biofilm; experiment: as above; type: cell-based; conditions: SE biofilm on polystyrene, lipopeptide alone in PBS, 24 h
Protocol: as §6, §7, §8

[7] = tested on: Staphylococus aureus ATCC 6538 biofilm on CLs; experiment: Activity of lipopeptide and CL liquids against biofilms formed on contact lenses; type: cell-based, Staphylococcus aureus; conditions: SA biofilm on CLs, lipopeptide in PBS, 24 h, resazurin
Protocol: (§9) Bacterial strains were obtained from the Polish Collection of Microorganisms (Polish Academy of Science, Wroclaw, Poland). Three Gram-positive and two Gram-negative strains linked with CL-related infections were chosen for the study (Staphylococus aureus ATCC 6538, Staphylococcus epidermidis ATCC 14990, Pseudomonas aeruginosa ATCC 9027, Escherichia coli ATCC 25922, and Enterococcus faecalis ATCC 29212). The bacteria were cultured in a Mueller Hinton Broth II (MHB, Biocorp, Warsaw, Poland) overnight, under aerobic conditions at 37 °C. After incubation, the liquid cultures were centrifuged (2500 rpm for 10 min) and washed with phosphoric buffer (PBS, AppliChem, Darmstadt, Germany) three times and resuspended in fresh MHB II for inoculums appropriate for the performed assays.
Bacterial biofilms were cultured on commercially available CLs (1-Day Acuvue Moist, containing Etafilcon A, obtained from Johnson and Johnson Vision Care, Jacksonsville, FL, USA). The CLs were placed in polystyrene 24-well plates (Orange Scientific, Braine-l’Alleud, Belgium) in bacterial suspensions in MHB II at initial inoculums of ca. 5 × 10^8 CFU/mL. After 24 h of incubation (aerobic conditions, 120 rpm shaking, 37 °C), all of the CLs were rinsed three times with PBS. […] After incubation, resazurin was added (final concentration per sample = 0.01%) and absorbance was measured as in the assays 4.3 and 4.4. […]

[8] = tested on: Staphylococus aureus ATCC 6538 biofilm on CLs; experiment: Lipopeptide, lens liquids and combinations against biofilms on CLs after withdrawal of the antimicrobial solution; type: cell-based, Staphylococcus aureus; conditions: SA biofilm on CLs, lipopeptide in PBS, after withdrawal and 24 h in MHB II
Protocol: as §9
Bacterial biofilms were cultured on commercially available CLs (1-Day Acuvue Moist, containing Etafilcon A, obtained from Johnson and Johnson Vision Care, Jacksonsville, FL, USA). […] After incubation, resazurin was added (final concentration per sample = 0.01%) and absorbance was measured as in the assays 4.3 and 4.4. […]
The assay was also performed for the samples where biofilms on CLs were exposed to pure CL solutions. […] The results were read, calculated, and presented as in the previously-described sections.

[9] = lowest concentration reducing metabolic activity by at least 50 ± 5%
[10] = lowest concentration reducing metabolic activity by at least 90 ± 5%, mean of nine results

(C10)2-KKKK-NH2 [Lipopeptide]
MBEC 50 [1, 9]: 16 mg/L
MBEC 90 [1, 10]: 32 mg/L
MBEC 50 [2, 9]: 64 mg/L
MBEC 90 [2, 10]: 64 mg/L
MBEC 50 [3, 9]: 16 mg/L
MBEC 90 [3, 10]: 16 mg/L
MBEC 50 [4]: 64 mg/L
reduction of metabolic activity in the biofilm [5]: ca. 95%
concentration at which highly active against biofilm [6]: 16 mg/L
concentration reducing metabolic activity of bacteria by at least 90% [7]: 16 mg/L
concentration permanently removing biofilm from CLs [8]: 16 mg/L
